Experimental data as given in patent US7491701B2, “Peptides that bind to HSP90 proteins” (Boys Town National Research Hospital, priority 2004, dated 2009).
Where no end group is shown, it is not given here.

Key:
[1] = background; cited from earlier work
[2] = background; geldanamycin Phase I clinical trials; cited from earlier work
recombinant human Hsp90α = molecular target: T1, recombinant human Hsp90α (Homo sapiens, UniProt P07900); assay: Binding of purified recombinant human Hsp90α to peptide affinity columns, 600 mM NaCl elution, silver stain; conditions: for binding of Hsp90α to the peptide affinity column: 400 ng recombinant human Hsp90α, BSA-preabsorbed column, 4° C., silver stain, FIG. 5; for protein corresponding to Hsp90 molecular weight eluted with 600 mM NaCl, share of protein added: scan of silver stained gel, elution with TNGD + 600 mM NaCl
T1 construct: purchased Stressgen SPP-776
Description: Fifty μl of 50% slurry of OTOF CTERM E47 and OTOF CTERM E48 Sulfolink affinity matrix were equilibrated with four washes of 0.4 ml of TNGD buffer in Handee Spin Cup Columns (Pierce, Rockford). The columns was preabsorbed with 100 μl of 10% BSA for 30 minutes at 4° C. and mixed by rotation. The columns were then washed five times with 0.4 ml of TNGD. Four hundred (400) ng of recombinant human Hsp90α (Stressgen SPP-776, Lot No. B201401) in 100 μl of TNGD was added to each column for 30 minutes at 4° C. and mixed by rotation. The unabsorbed protein was removed by centrifugation. The columns were washed five times with 0.4 ml of TNGD, then eluted with 100 μl TNGD+600 mM NaCl. Samples were analyzed on a 4-20% SDS-PAGE gel followed by silver staining using a BIORAD Silver Stain Plus kit (No. 161-0449) as show in FIG. 5. […] The amount of protein added and eluted was determined by scanning the silver stained gel using a Alpha Imager 2200 gel imaging system.

beta-COP = assay: Binding of beta-COP from mouse brain extract to Sulfolink-peptide affinity matrix, western analysis; conditions: FIG. 1B; for amount of beta-COP binding the peptide matrix: western with antibody to beta-COP; for amount of beta-COP bound by the di-serine control relative to the parent di-lysine peptide matrix: western, 672 BC1 vs OTOF CTERM E47, 670 CC1 vs OTOF CTERM E48
Description: Antibody to beta-COP was obtained from Oncogene Research Products (EMD Biosciences, Ind.) (Product No. PC175) and used at a 1:1500 dilution. Antibody to mouse Hsp90α was obtained from Stressgen (Victoria, Canada), Product No. SPS-771 and used at a 1:1000 dilution.
(§1) Sulfolink-peptide affinity columns were synthesized using the Sulpholink Kit (Pierce Biotechnology, Inc., Rockford, Ill., Product No. 44895) according to their protocol. Peptides were stored at 4° C. in a lyophilized state in a sealed desiccator. Approximately 2 mg of peptide is weighed and suspended in 0.4 ml of DMSO. This peptide solution is immediately diluted into 2 ml of coupling buffer and mixed (100 μl is removed for quantization) then added to 4 ml of a 50% slurry of Sulfolink gel equilibrated in coupling buffer in a small plastic column. The combination is mixed for 15 minutes at room temperature by rotation. The mixture is further incubated for 30 minutes at room temperature without mixing. The column is washed with coupling buffer, then blocked with freshly made 0.5 M cysteine, further washed with a Wash buffer. The peptide affinity matrix was removed from the column to a 50 ml conical tube and stored as a 50% slurry in PBS containing 0.05% sodium azide at 4° C.
Total mouse brain from deeply anthesized adult mice is excised and flash frozen in liquid nitrogen and stored at −80° C. The frozen brain is pulverized in a mortar and pestle under liquid nitrogen and suspended in TNGD (TRIS 50 mM pH7.5, NaCl 75 mM, EGTA 10 mM, EDTA 2 mM) with protease inhibitors (10 μl/ml of protease inhibitor cocktail for mammalian cells, Sigma Chemical Co. No. P8340) at 1 ml/100 mg of tissue. This mixture is homogenized in a Potter-Elvehjem Teflon glass homogenizer on ice. The homogenate is centrifuged for 10 minutes at 4° C. in an IEC minifuge at 13,200 RPM. The pellet is discarded. The supernatant is used immediately or frozen and stored at −80° C.
All steps of protein purification were done at 4° C. in a Handee Spin Cup Column (Pierce Biotechnology, Inc., Rockford, Ill., Product No. 69700) in the presence of protease inibitor (10 μl/ml of protease inhibitor cocktail for mammalian cells, Sigma Chemical Co. No. P8340). Fifty μl of a 50% slurry of Sulfolink-peptide was washed five times with 0.4 ml of TNGD. Mouse brain extract supernatant (100 μl) was allowed to absorb to the gel by mixing by rotation for 30 minutes. Following absorption the gel is washed five times with 0.4 ml TNGD. Specific elution is described in the results.
Protein samples are made 1× with ImmunoPure Lane Marker Non-Reducing Sample Buffer (5×) (Pierce Biotechnology) and heated for 5 minutes at 95° C. Samples are separated on a 4-20% Linear Gradient Ready Gel (BIO-RAD Laboratories, Hercules, Calif., Product No. 161-1105). Polyacrylamide gels are stained with BIORAD Silver Stain Plus Kit (No. 161-0449) or Bio-Safe Coomassie Stain or electro-blotted to PVDF membrane (BIO-RAD) for Western blot analysis, according to directions provided by the manufacturer. Specific antibody binding is detected using ECL Western Blotting System (Amersham Biosciences Corp., Piscataway, N.J., Product No. RPN2108). Molecular weight standards used were the BIO-RAD Precision Protein Standards, Prestained, Broad Range (Product No. 161-0372). Chemiluminecence is detected using Kodak Biomax ML Scientific Imaging Film (Product No. 868-9358).
Mouse brain extracts were absorbed to the four peptide matrix columns as described in the methods. Column matrix was transferred to PCR tubes and made 1× with SDS buffer and heated for 5 minutes at 95° C. After heating the samples were centrifuged for 1 minute at 300×g and the supernatant separated by SDS gel electrophoresis on two separate gels.

Hsp90α (p97, HS9A_MOUSE) = molecular target: T2, Hsp90α (p97, HS9A_MOUSE) (Mus musculus, UniProt P07901); assay: Binding of mouse brain extract protein p97 (identified as Hsp90α) to Sulfolink-peptide affinity matrix, SDS-PAGE Coomassie stain; conditions: Coomassie stained gel, FIG. 1A
T2 construct: Total mouse brain from deeply anthesized adult mice is excised and flash frozen in liquid nitrogen; from tissue; host or cells: adult mouse brain, 13,200 rpm supernatant of homogenate
Description: as §1, with “The peptide affinity matrix was removed from the column to a 50 ml conical tube and stored as a 50% slurry in PBS containing 0.05% sodium azide at 4° C.” left out
Protein samples are made 1× with ImmunoPure Lane Marker Non-Reducing Sample Buffer (5×) (Pierce Biotechnology) and heated for 5 minutes at 95° C. Samples are separated on a 4-20% Linear Gradient Ready Gel (BIO-RAD Laboratories, Hercules, Calif., Product No. 161-1105). […] Specific antibody binding is detected using ECL Western Blotting System (Amersham Biosciences Corp., Piscataway, N.J., Product No. RPN2108). […] Chemiluminecence is detected using Kodak Biomax ML Scientific Imaging Film (Product No. 868-9358). […]

| binding of Hsp90α to the peptide affinity column (recombinant human Hsp90α) | protein corresponding to Hsp90 molecular weight eluted with 600 mM NaCl, share of protein added (recombinant human Hsp90α) | Compound | water / aqueous solubility [1] | hepatotoxicity [2] | amount of beta-COP binding the peptide matrix (beta-COP) | amount of beta-COP bound by the di-serine control relative to the parent di-lysine peptide matrix (beta-COP) | further results |
| --- | --- | --- | --- | --- | --- | --- | --- |
| – | – | C=CCNC1=C2C[C@@H](C)C[C@H](OC)[C@H](O)[C@@H](C)/C=C(\C)[C@H](OC(N)=O)[C@@H](OC)/C=C\C=C(/C)C(=O)NC(=CC1=O)C2=O [Peptide 17-AAG, 17-(allylamino)-17-desmethoxygeldanamycin] | limited aqueous solubility | reduced hepatotoxicity | – | – | – |
| – | – | COC1=C2C[C@@H](C)C[C@H](OC)[C@H](O)[C@@H](C)/C=C(\C)[C@H](OC(N)=O)[C@@H](OC)/C=C\C=C(/C)C(=O)NC(=CC1=O)C2=O [geldanamycin] | poor water solubility | hepatotoxicity | – | – | – |
| does not bind | no eluted protein was detected | CYSLPGYLAKKILGA (also: coupled to Sulfolink matrix) [OTOF CTERM E47, C-terminus 14 amino acids of the brain otoferlin isoform with added N-terminal cysteine, coupled to Sulfolink matrix] | – | – | similar | – | amount of beta-COP binding the peptide matrix (beta-COP; listed as E47): specific binding |
| – | – | CYSLPGYLASSILGA (peptide corresponding to the C-terminus of an otoferlin isoform with di-lysine replaced by di-serine) [672 BC1, E47 peptide control with the di-lysine replaced with di-serine, reference compound] | – | – | – | about half | – |
| specifically binds | Approximately 10% | CYSLPGYMVKKLLGA (also: coupled to Sulfolink matrix) [OTOF CTERM E48, C-terminus 14 amino acids of the cochlear otoferlin isoform with added N-terminal cysteine, coupled to Sulfolink matrix] | – | – | similar | – | amount of beta-COP binding the peptide matrix (beta-COP; listed as E48): specific binding; binding of a protein at approximately 97 kilo-daltons (p97, Hsp90α) to the peptide matrix (Hsp90α (p97, HS9A_MOUSE)): higher levels; binding of a protein at approximately 97 kilo-daltons (p97, Hsp90α) to the peptide matrix (Hsp90α (p97, HS9A_MOUSE); listed as E48): specific binding |
| – | – | CYSLPGYMVSSLLGA (peptide corresponding to the C-terminus of an otoferlin isoform with di-lysine replaced by di-serine) [670 CC1, E48 peptide control with the di-lysine replaced with di-serine, reference compound] | – | – | – | about a tenth | – |
